Data reported in ChEMBL document CHEMBL4680294, “Synthesis of nature product kinsenoside analogues with anti-inflammatory activity” (Bioorg Med Chem, 2021).
One block for each compound: values may come before it. Activity calls are given as the source filed them. The calls are words filed in the database; no cut-off is given here.

Columns and labels:
RAW264.7 [1] = assay: Antiinflammatory activity against mouse RAW 264.7 cells assessed as inhibition of LPS-induced NO production incubated for 24 hrs by Griess assay; assay type: functional, cell-based; conditions: RAW264.7, 24 h
RAW264.7 [2] = assay: Antiinflammatory activity against mouse RAW 264.7 cells assessed as inhibition of LPS-induced NO production at 50 uM incubated for 24 hrs by Griess assay relative to control; assay type: functional
RAW264.7 [3] = assay: Antiinflammatory activity against mouse RAW 264.7 cells assessed as inhibition of LPS-induced COX2 production at 50 uM preincubated for 1 hr followed by LPS addition measured after 16 hrs by Western blot analysis; assay type: functional, cell-based; conditions: time 17.0 hrs
RAW264.7 [4] = assay: Antiinflammatory activity against mouse RAW 264.7 cells assessed as inhibition of LPS-induced iNOS production at 50 uM preincubated for 1 hr followed by LPS addition measured after 16 hrs by Western blot analysis; assay type: functional, cell-based; conditions: time 17.0 hrs
RAW264.7 [5] = assay: Antiinflammatory activity against mouse RAW 264.7 cells assessed as inhibition of LPS-induced translocation into nucleus at 50 uM by preincubated for 1 hr followed by LPS addition measured after 16 hrs by immunofluorescence assay; assay type: functional, cell-based; conditions: time 17.0 hrs
RAW264.7 [6] = assay: Antiinflammatory activity against mouse RAW 264.7 cells assessed as inhibition of LPS-induced IL-1alpha mRNA level at 50 uM preincubated for 1 hr followed by LPS addition measured after 16 hrs by RT-PCR analysis; assay type: functional, cell-based; conditions: time 17.0 hrs
RAW264.7 [7] = assay: Antiinflammatory activity against mouse RAW 264.7 cells assessed as inhibition of LPS-induced IL-1beta mRNA level at 50 uM preincubated for 1 hr followed by LPS addition measured after 16 hrs by RT-PCR analysis; assay type: functional, cell-based; conditions: time 17.0 hrs
RAW264.7 [8] = assay: Antiinflammatory activity against mouse RAW 264.7 cells assessed as inhibition of LPS-induced IL-6 mRNA level at 50 uM preincubated for 1 hr followed by LPS addition measured after 16 hrs by RT-PCR analysis; assay type: functional, cell-based; conditions: time 17.0 hrs
RAW264.7 [9] = assay: Antiinflammatory activity against mouse RAW 264.7 cells assessed as inhibition of LPS-induced TNF-alpha mRNA level at 50 uM preincubated for 1 hr followed by LPS addition measured after 16 hrs by RT-PCR analysis; assay type: functional, cell-based; conditions: time 17.0 hrs
RAW264.7 [10] = assay: Cytotoxicity against mouse RAW 264.7 cells incubated for 24 hrs by MTT assay; assay type: cell-based; conditions: raw264.7, 24 h
RAW264.7 [11] = assay: Antiinflammatory activity against mouse RAW 264.7 cells assessed as inhibition of LPS-induced IkappaB-alpha level preincubated for 1 hr followed by LPS addition measured after 16 hrs by Western blot analysis; assay type: functional, cell-based; conditions: time 17.0 hrs
RAW264.7 [12] = assay: Antiinflammatory activity against mouse RAW 264.7 cells assessed as inhibition of LPS-induced […] p-p65 level preincubated for 1 hr followed by LPS addition measured after 16 hrs by Western blot analysis; assay type: functional, cell-based; conditions: time 17.0 hrs
RAW264.7 [13] = assay: Antiinflammatory activity against mouse RAW 264.7 cells assessed as inhibition of LPS-induced IL-1alpha mRNA level upto 50 uM preincubated for 1 hr followed by LPS addition measured after 16 hrs by RT-PCR analysis; assay type: functional, cell-based; conditions: dose microM <=50, time 17.0 hrs
RAW264.7 [14] = assay: Antiinflammatory activity against mouse RAW 264.7 cells assessed as inhibition of LPS-induced IL-1beta mRNA level upto 50 uM preincubated for 1 hr followed by LPS addition measured after 16 hrs by RT-PCR analysis; assay type: functional, cell-based; conditions: dose microM <=50, time 17.0 hrs
RAW264.7 [15] = assay: Antiinflammatory activity against mouse RAW 264.7 cells assessed as inhibition of LPS-induced IL-6 mRNA level upto 50 uM preincubated for 1 hr followed by LPS addition measured after 16 hrs by RT-PCR analysis; assay type: functional, cell-based; conditions: dose microM <=50, time 17.0 hrs
RAW264.7 [16] = assay: Antiinflammatory activity against mouse RAW 264.7 cells assessed as inhibition of LPS-induced TNF-alpha mRNA level upto 50 uM preincubated for 1 hr followed by LPS addition measured after 16 hrs by RT-PCR analysis; assay type: functional, cell-based; conditions: dose microM <=50, time 17.0 hrs
RAW264.7 [17] = assay: Antiinflammatory activity against mouse RAW 264.7 cells assessed as inhibition of LPS-induced COX2 production preincubated for 1 hr followed by LPS addition measured after 16 hrs by Western blot analysis; assay type: functional, cell-based; conditions: time 17.0 hrs
RAW264.7 [18] = assay: Antiinflammatory activity against mouse RAW 264.7 cells assessed as inhibition of LPS-induced iNOS production preincubated for 1 hr followed by LPS addition measured after 16 hrs by Western blot analysis; assay type: functional, cell-based; conditions: time 17.0 hrs
RAW264.7 [19] = assay: Antiinflammatory activity against mouse RAW 264.7 cells assessed as inhibition of LPS-induced translocation into nucleus upto 50 uM by preincubated for 1 hr followed by LPS addition measured after 16 hrs by immunofluorescence assay; assay type: functional, cell-based; conditions: dose microM <=50, time 17.0 hrs

SMILES: C[C@@H]1O[C@@H](O[C@H]2CC(=O)N(Cc3ccccc3)C2)[C@H](O)[C@H](O)[C@H]1O
- IC50 (RAW264.7 [1]): 69.7 µM

SMILES: O=C(NO)c1ccc(O)c(O)c1
- inhibition at 50 µM (RAW264.7 [2]): 70%
- inhibition (RAW264.7 [3]): Active
- inhibition (RAW264.7 [4]): Active
- inhibition (RAW264.7 [5]): Active
- inhibition (RAW264.7 [6]): Active
- inhibition (RAW264.7 [7]): Active
- inhibition (RAW264.7 [8]): Active
- inhibition (RAW264.7 [9]): Active

SMILES: O=C1C[C@@H](O[C@H]2O[C@H](CO)[C@@H](O)[C@H](O)[C@@H]2O)CN1
- IC50 (RAW264.7 [1]): 108 µM

SMILES: O=C1C[C@H](O[C@H]2O[C@H](CO)[C@@H](O)[C@H](O)[C@H]2O)CN1
- IC50 (RAW264.7 [1]): 80.9 µM

SMILES: C[C@@H]1O[C@@H](O[C@H]2CNC(=O)C2)[C@H](O)[C@H](O)[C@H]1O
- IC50 (RAW264.7 [1]): 116 µM

SMILES: O=C1C[C@H](O[C@H]2O[C@H](CO)[C@@H](O)[C@H](O)[C@H]2O)CN1Cc1ccccc1
- IC50 (RAW264.7 [1]): 105 µM

SMILES: O=C1C[C@@H](O[C@H]2O[C@H](CO)[C@@H](O)[C@H](O)[C@@H]2O)CN1Cc1ccccc1
- IC50 (RAW264.7 [1]): 97.2 µM

SMILES: O=C1C[C@@H](O[C@H]2O[C@H](CO)[C@@H](O)[C@H](O)[C@H]2O)CN1
- IC50 (RAW264.7 [1]): 89 µM

SMILES: C[C@@H]1O[C@@H](O[C@@H]2CNC(=O)C2)[C@H](O)[C@H](O)[C@H]1O
- IC50 (RAW264.7 [1]): 66.9 µM

SMILES: O=C1C[C@H](O[C@H]2O[C@H](CO)[C@@H](O)[C@H](O)[C@@H]2O)CN1
- IC50 (RAW264.7 [1]): 67.1 µM

SMILES: O=C1C[C@H](O[C@H]2O[C@H](CO)[C@@H](O)[C@H](O)[C@H]2O)CO1
- IC50 (RAW264.7 [1]): 91.3 µM

SMILES: O=C1C[C@@H](O[C@H]2O[C@H](CO)[C@@H](O)[C@H](O)[C@H]2O)CN1Cc1ccccc1
- IC50 (RAW264.7 [1]): 72.5 µM

The next lines start with results.

- IC50 (RAW264.7 [1]): 64 µM
SMILES: O=C1C[C@H](O[C@H]2O[C@H](CO)[C@@H](O)[C@H](O)[C@@H]2O)CN1Cc1ccccc1

- IC50 (RAW264.7 [1]): 41.9 µM
SMILES: O=C1C[C@@H](O[C@@H]2O[C@H](CO)[C@@H](O)[C@H](O)[C@H]2O)CO1
- Activity (RAW264.7 [10]): Non-Toxic

- IC50 (RAW264.7 [1]): 66.5 µM
SMILES: O=C1C[C@H](O[C@H]2O[C@H](CO)[C@H](O)[C@H](O)[C@H]2O)CO1

- IC50 (RAW264.7 [1]): 41.5 µM
SMILES: O=C1C[C@@H](O[C@@H]2O[C@H](CO)[C@H](O)[C@H](O)[C@H]2O)CO1
- Activity (RAW264.7 [10]): Non-Toxic

- IC50 (RAW264.7 [1]): 60.7 µM
SMILES: C[C@@H]1O[C@@H](O[C@@H]2COC(=O)C2)[C@H](O)[C@H](O)[C@H]1O

- IC50 (RAW264.7 [1]): 56 µM
SMILES: C[C@@H]1O[C@@H](O[C@@H]2CC(=O)N(Cc3ccccc3)C2)[C@H](O)[C@H](O)[C@H]1O

- IC50 (RAW264.7 [1]): 27.9 µM
SMILES: O=C1C[C@H](O[C@@H]2O[C@H](CO)[C@@H](O)[C@H](O)[C@H]2O)CO1 [GOODYEROSIDE]
- inhibition (RAW264.7 [11]): Active
- inhibition (RAW264.7 [12]): Active
- Activity (RAW264.7 [10]): Non-Toxic
- inhibition (RAW264.7 [13]): Active
- inhibition (RAW264.7 [14]): Active
- inhibition (RAW264.7 [15]): Active
- inhibition (RAW264.7 [16]): Active
- inhibition (RAW264.7 [17]): Dose-dependent effect
- inhibition (RAW264.7 [18]): Dose-dependent effect
- inhibition (RAW264.7 [19]): Active

- IC50 (RAW264.7 [1]): 38.7 µM
SMILES: O=C1C[C@H](O[C@H]2O[C@H](CO)[C@@H](O)[C@H](O)[C@@H]2O)CO1
- Activity (RAW264.7 [10]): Non-Toxic

- IC50 (RAW264.7 [1]): 42.9 µM
SMILES: O=C1C[C@@H](O[C@H]2O[C@H](CO)[C@@H](O)[C@H](O)[C@@H]2O)CO1
- Activity (RAW264.7 [10]): Non-Toxic

- IC50 (RAW264.7 [1]): 41.2 µM
SMILES: C[C@@H]1O[C@@H](O[C@H]2COC(=O)C2)[C@H](O)[C@H](O)[C@H]1O
- Activity (RAW264.7 [10]): Non-Toxic
